According to patent publication US20250214969A1, “PROTEIN DEGRADERS AND USES THEREOF” (Kymera Therapeutics, Inc., priority 2022, published 2025):

Experiments:
BRD4 = target: T1, BRD4 (Homo sapiens, UniProt O60885); test: BRD4 degradation in HEK293 cells (Western blot); type: cell-based; conditions: lysed after 24, Western blot
T1 construct: endogenous in cells; host or cells: HEK293
Experimental: On day 1, 6.25×10^5 HEK293 cells were seeded per well into a 12-well plate. After 24, cells were lysed in wells with 80 ul of pre-chilled RIPA Lysis buffer (Beyotime, P0013B) with protease/phosphatase inhibitor (Roche 4693116001/Roche 04906837001) for 20 min at 4 degree on a rocker, then spun down at 20,000g at 4 degree for 10 min and the BCA assay was run. 39 ul of supernatant was transferred to a fresh EP tube containing 15 ul of 4X LDS loading buffer and 6 ul 10X reducing agent to make the loading samples. The samples were then heated to 70° C. for 10 minutes, cooled to RT, and stored under−20° C. Samples were loaded with equal amount of protein onto 4-12% Bis -Tris SDS-PAGE 26 wells gel (Novex, WG1403BOX) and the gel was run for 1.5 hours at 120 V. Electrotransfer to NC membrane was completed using wet-transfer method with 250 mA for 80 min and the membrane was blocked in 5% BSA (Solarbio,A8020) with 1X TBST for 1 hour. The samples were incubated with primary antibody prepared in blocking buffer (LI-COR, 927-60001) at 4° C. overnight and the membrane was washed three times with 1X TBST, 5 minutes each. Incubate with secondary antibody for 1 hour at RT (anti-rabbit IgG (Licor,926-32211) 1:5000; anti-mouse IgG (LI-COR, 926-68070)1:5000). The membrance was then washed three times with 1X TBST, 5 minutes each and once with RO H2O, then read on LiCOR.

[1] = target: T2, truncated His-MBP-Tev-KLHDC2 (residues 1-363) (Homo sapiens, UniProt Q9Y2U9); test: KLHDC2 HTRF binding assay; conditions: 1 nM KLHDC2 (residues 1-363), fluorescein-labeled diglycine peptide probe
T2 construct: truncated His -MBP-Tev-KLHDC2 (residues 1-363) purified from E. coli; made in house; host or cells: E. coli
T2 sequence (Q9Y2U9 1-363): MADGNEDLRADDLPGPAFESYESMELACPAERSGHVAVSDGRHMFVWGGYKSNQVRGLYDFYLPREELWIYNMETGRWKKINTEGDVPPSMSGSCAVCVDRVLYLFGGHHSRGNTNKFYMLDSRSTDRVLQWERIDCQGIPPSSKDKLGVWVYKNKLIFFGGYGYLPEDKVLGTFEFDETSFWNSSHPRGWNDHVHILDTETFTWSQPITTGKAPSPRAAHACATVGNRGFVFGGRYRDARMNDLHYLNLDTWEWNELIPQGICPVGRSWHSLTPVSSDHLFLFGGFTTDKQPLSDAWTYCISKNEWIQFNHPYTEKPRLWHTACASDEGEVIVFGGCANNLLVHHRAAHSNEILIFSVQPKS
Experimental: HTRF binding assays were performed using 1 nM truncated His -MBP-Tev-KLHDC2 (residues 1-363) purified from E. coli, 0.2 nM terbium-anti-His antibody (CisBio), 1 nM fluorescein-labeled diglycine peptide probe, and test compounds in assay buffer consisting of 50 mM HEPES-Na pH 7.5, 100 mM NaCl, 2 mM DTT, 0.005% Tween-20 with a final volume of 20 uL. Compound stocks were dissolved at 10 mM in 100% DMSO and 11 point titration with 3 fold serial dilution was performed in white, opaque 384 well microplates. Reaction plates were incubated at room temperature for 30 minutes. Plates were centrifuged at low rpm for 5 mins, and the ratio of fluorescence intensities were measured at emission wavelengths for fluorescein acceptor (520 nm) and terbium donor (495 nm) on Envision Plate reader. % Inhibition was calculated from the 520/495 ratio generated by the no protein controls for 100% inhibition and DMSO only reactions for 0l % inhibition.

[2] = target: T2, truncated His-MBP-Tev-KLHDC2 (residues 1-363); test: KLHDC2 FP competition binding assay; conditions: 15 nM KLHDC2 (residues 1-363), 10 nM fluorescein-labeled diglycine peptide probe, read-out: KLHDC2 binding Human FP: average external IC50
Experimental: FP competition binding assays were performed using 15 nM truncated His -MBP-Tev-KLHDC2 (residues 1-363) purified from E. coli, 10 nM fluorescein-labeled diglycine peptide probe, and test compounds in assay buffer consisting of 50 mM HEPES-Na pH 7.5, 100 mM NaCl, 2 mM DTT, 0.005% Tween-20 with a final volume of 20 uL. Compound stocks were dissolved at 10 mM in 100% DMSO and 11 point titration with 3 fold serial dilution was performed in black, flat bottom 384 well microplates. Plates were incubated at room temperature for 30 minutes. Plates were centrifuged at 1000 rpm for 1 min, data were collected using an Envision plate reader in fluorescence polarization mode with excitation filter FITC FP at 480 nm, emission filter FITC FP P-pol at 535 nm and FITC FP S-pol at 535 nm. FP signal was calculated using the equation (mP=1000*(S-G*P)/(S+G*P), G-factor=1.0) and % Inhibition was calculated using no-protein controls for 100% inhibition and DMSO only reactions for 0l % inhibition (yes).

Structure (SMILES) | KLHDC2-dependent BRD4 degradation (BRD4; FIG. 4) | BRD4 degradation (BRD4; FIGS. 2-3) | IC50 [1] [µM] | IC50 [2] [µM]
Cc1sc2c(c1C)C(c1ccc(Cl)cc1)=N[C@@H](CC(=O)NCCCCCCCCCCCCCCN(C(=O)C1CCCN(c3cncc4ccccc34)C1)c1ccc(=O)n(CC(=O)O)c1)c1nnc(C)n1-2 (stereo partly drawn) [I-481] | KLHDC2-dependent BRD4 degradation | BRD4 degradation |  | 
CCOC(=O)Cn1cc(NC(=O)c2cccc(-c3cncc(CCCCCCNC(=O)OC(C)(C)C)c3)c2)ccc1=O [I-158] |  |  | > 5 | > 5
O=C(O)Cc1cc(NC(=O)[C@@H]2CCCN(c3cccnc3)C2)ccc1Cl [I-30] |  |  | > 5 | > 5
O=C(O)Cn1cc(-c2cccc(CN3CCCCC3)c2)ccc1=O [I-303] |  |  | > 5 | > 5
COc1ccc(-c2ccccc2)cc1C(=O)Nc1ccc(=O)n(CC(=O)O)c1 [I-243] |  |  | > 5 | > 5
CC(C)(C)OC(=O)NCCCCCCc1ccc(C(=O)Nc2ccc(=O)n(CC(=O)O)c2)cc1-c1cccnc1 [I-146] |  |  | 0.05 to 0.5 | 0.05 to 0.5
